The text below walks through data of US7572606B1 (Nereus Pharmaceuticals, Inc., priority 2005, dated 2009).

One data set deals with HT-29. Briefly: Cell growth inhibition, resazurin, 48 h. It counts as cell-based, human. Particulars: HT-29, 48 h drug exposure. The method, then:
RPMI 8226 (CCL-155), HT-29 (HTB-38), and B16-F10 (CRL-6475) cells were purchased from ATCC. RPMI 8226 cells were maintained in RPMI 1640 media supplemented with 10% (v/v) FBS, 2 mM L-glutamine, 1 mM sodium pyruvate and Penicillin/Streptomycin at 100 IU/ml and 100 μg/ml, respectively. HT-29 cells were maintained in McCoys 5A supplemented with 10% (v/v) FBS, 2 mM L-glutamine, 1 mM sodium pyruvate, 1% (v/v) non-essential amino acids, 10 mM HEPES and Penicillin/Streptomycin at 100 IU/ml and 100 μg/ml, respectively. B16-F10 cells were maintained in DMEM supplemented with 10% (v/v) FBS, 2 mM L-glutamine, 10 mM HEPES and Penicillin/Streptomycin at 100 IU/ml and 100 μg/ml, respectively.
RPMI 8226 cells were seeded at 2×10^4 cells/well in 90 μl RPMI media containing 10% (v/v) FBS or 1% (v/v) FBS into 96 well black-walled, clear-bottom tissue culture plates. […] Formulae II-16, II-17 and Formula II-18 were serially diluted in media containing 1% or 10% FBS and added in triplicate to the test wells. […] The final concentration of Formula II-18 ranged from 2 μM to 630 pM.

The next data set deals with PC-3. As to the kind of experiment: Cell growth inhibition, resazurin, 48 h. In general terms: Alamar Blue is a resazurin reagent that responds to reducing activity.
The subject of the next data set is HL-60/MX2. Briefly: Cell growth inhibition, resazurin, 48 h. Particulars: for EC50: HL-60/MX2, 48 h drug exposure. Here is the method: (§1) The DNA binding agent Mitoxantrone was included as a control, as HL-60/MX2 cells are reported to be resistant to this chemotherapeutic agent (Harker W. G. et al. 1989).
(§2) Concentrations ranging from 6.32 μM to 2 nM were tested for II-2 and II-4.

Another data set concerns HL-60. As to the kind of experiment: Cell growth inhibition, resazurin, 48 h. Particulars: for EC50: HL-60, 48 h drug exposure. The method, then: as §1, §2
Another data set deals with tGROV1. As to the kind of experiment: NCI 60 cell line screen, sulforhodamine B, 48 h. Particulars: tGROV1, Ovarian Cancer. It counts as cell-based, human. The method, then: (§3) A detailed description of the screening procedure can be found at hypertext transfer protocol (http://) “dtp.nci.nih.gov/branches/btb/ivclsp.html.”
(§4) In brief, each of the 60 human tumor cell lines were grown in RPMI 1640 medium, supplemented with 5% fetal bovine serum and 2 mM L-glutamine. Cells were plated at their appropriate density in 96-well microtiter plates and incubated at 37° C., 5% CO2, 95% air and 100% relative humidity. […] Cells were incubated for an additional 48 hours and a sulforhodamine B protein assay was used to estimate cell viability or growth.

The test system of another data set is HCI-H23. As to the kind of experiment: NCI 60 cell line screen, sulforhodamine B, 48 h. It counts as cell-based, human. The settings on record: HCI-H23, Non-Small Cell Lung Cancer. The method, then:
as §3, §4

Another data set relates to HT29. Briefly: NCI 60 cell line screen, sulforhodamine B, 48 h. It counts as cell-based, human. The method, then: as §3, §4
For the next data set, the system named is UACC-257. As to the kind of experiment: NCI 60 cell line screen, sulforhodamine B, 48 h. It counts as cell-based, human. Here is the method:
as §3, §4

The test system of a further data set is MDA-MB-435. As to the kind of experiment: NCI 60 cell line screen, sulforhodamine B, 48 h. It counts as cell-based, human. The settings on record: for CC50: Homo sapiens. The method, then:
as §3, §4

Another data set deals with UO-11. As to the kind of experiment: NCI 60 cell line screen, sulforhodamine B, 48 h. It counts as cell-based, human. Here is the method:
as §3, §4

For the next data set, the system named is MDA-N. Briefly: NCI 60 cell line screen, sulforhodamine B, 48 h. Particulars: Breast Cancer. It counts as cell-based, human. Here is the method: as §3, §4
Another data set has as its system EKVX. As to the kind of experiment: NCI 60 cell line screen, sulforhodamine B, 48 h. It counts as cell-based, human. The settings on record: Non-Small Cell Lung Cancer. Here is the method: as §3, §4
For a further data set, the system named is NCVADR-RES. Briefly: NCI 60 cell line screen, sulforhodamine B, 48 h. It counts as cell-based, human. Here is the method: as §3, §4
In the next data set the test system is NCI-H522. Briefly: NCI 60 cell line screen, sulforhodamine B, 48 h. It counts as cell-based, human. Particulars: NCI-H522, Non-Small Cell Lung Cancer. Here is the method: as §3, §4
A further data set relates to CAK1-1. Briefly: NCI 60 cell line screen, sulforhodamine B, 48 h. The settings on record: CAK1-1, Renal Cancer. It counts as cell-based, human. The method, then:
as §3, §4

The next data set deals with HDP-92. Briefly: NCI 60 cell line screen, sulforhodamine B, 48 h. It counts as cell-based, human. The method, then: as §3, §4
The test system of another data set is RXF393. As to the kind of experiment: NCI 60 cell line screen, sulforhodamine B, 48 h. It counts as cell-based, human. Particulars: RXF393, Renal Cancer. The method, then: as §3, §4
For data set [1], the system named is OVCAR-3. Briefly: NCI 60 cell line screen, sulforhodamine B, 48 h. The settings on record: OVCAR-3, Ovarian Cancer. It counts as cell-based, human. Here is the method: as §3, §4
For another data set, the system named is MOLT-4. As to the kind of experiment: NCI 60 cell line screen, sulforhodamine B, 48 h. It counts as cell-based, human. The method, then: as §3, §4
In a further data set the test system is NCI-H292. Briefly: Cell growth inhibition, resazurin, 48 h. It counts as cell-based, human. Particulars: NCI-H292, 48 h drug exposure.
In the next data set the test system is MDA-MB-231. Briefly: Cell growth inhibition, resazurin, 48 h. Particulars: MDA-MB-231, 48 h drug exposure. It counts as cell-based, human.
Another data set has as its system RPMI 8226. As to the kind of experiment: Cell growth inhibition, resazurin, 48 h. The settings on record: for EC50: Homo sapiens, RPMI-8226, 48 h, RPMI 8226, 48 h drug exposure; for % cytotoxicity: RPMI 8226. In a few lines:
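RPMI 8226 cells seeded at 2×10^4/well in medium with 10% or 1% FBS and treated in triplicate with serial dilutions made in 1% or 10% FBS medium (Formula II-18 final 2 μM to 630 pM). Growth read by resazurin after 48 h.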

The test system of data set [2] is OVCAR-3. Briefly: Cell growth inhibition, resazurin, 48 h. It counts as cell-based, human. The settings on record: OVCAR-3, 48 h drug exposure.
The mark [3] stands for this setting: Homo sapiens, 60 cell, read-out: Log10 LC50 (converted).
Where [4] appears, read: HDP-92, Non-Small Cell Lung Cancer.

“And” between values parts separate entries of the source, which are not always exact repeats. Identical values can stand only once. Like-named read-outs stand apart in the source and are kept apart here.

With `C[C@@]12OC(=O)[C@]1([C@@H](O)[C@@H]1C=CCCC1)NC(=O)[C@@H]2CCCl` [Formula II-16, Salinosporamide A], the EC50 (as a rule, the concentration that produces a half-maximal response) amounted to 40 ± 26 nM in the data set with HT-29; 47 nM in the data set on HT-29 (Homo sapiens, HT-29, 48 h); 64 ± 26 nM with PC-3 (PC-3, 48 h drug exposure); 25 nM in the data set on HL-60/MX2; 28 nM in the data set with HL-60/MX2 (Homo sapiens, HL60/MX2, 48 h); 30 nM with HL-60. Besides, the EC50 in the data set with HL-60 (Homo sapiens, HL-60, 48 h) stood at 27 nM; in the data set on NCI-H292 (Homo sapiens, NCI-H292, 48 h) it was 97 nM; in the data set with NCI-H292, 66 ± 29 nM; in the data set with MDA-MB-231 (Homo sapiens, MDA-MB-231, 48 h), 67 nM; in the data set on MDA-MB-231, 87 ± 40 nM; in the data set with RPMI 8226 it was 8.6 ± 1.9 nM. Also, the EC50 with OVCAR-3 [2] (Homo sapiens, OVCAR-3, 48 h) is 69 nM; in the data set on OVCAR-3 [2], 49 ± 31 nM. Moreover, the “% cytotoxicity” value with PC-3 (PC-3) was 88% and 89%; in the data set with HL-60/MX2 (HL-60/MX2) it was 84% and 89%; in the data set on HL-60 (HL-60), 88% and 91%; in the data set with RPMI 8226 (listed as II-16) it was 94 ± 0%; with RPMI 8226 (listed as Salinosporamide A), 94 ± 1%. The “Log10 G150” value in the data set with tGROV1 is less than -8.00 Molar; in the data set on HCI-H23, less than -8.00 Molar; in the data set with HT29 (HT29, Colon Cancer), less than -8.00 Molar; in the data set on UACC-257 (UACC-257, Melanoma), less than -8.00 Molar; with MDA-MB-435 (MDA-MB-435, Breast Cancer) it was less than -8.00 Molar; in the data set with UO-11 (UO-11, Renal Cancer), less than -8.00 Molar. For the same molecule, the “Log10 G150” value in the data set on MDA-N was less than -8.00 Molar; in the data set with EKVX it was less than -8.00 Molar; with NCVADR-RES (NCVADR-RES, Breast Cancer), less than -8.00 Molar; in the data set with NCI-H522, less than -8.00 Molar; in the data set on CAK1-1, less than -8.00 Molar; in the data set on HDP-92 (setting [4]), less than -8.00 Molar. For the same molecule, the “Log10 G150” value was less than -8.00 Molar in the data set with RXF393; less than -8.00 Molar with OVCAR-3 [1]; less than -8.00 Molar in the data set on MOLT-4 (MOLT-4, Leukemia). The “Log10 TGI” value in the data set on tGROV1 is on record as -5.18 Molar; in the data set with HCI-H23 it was -7.85 Molar; with HT29 (HT29, Colon Cancer) it was -7.37 Molar; in the data set with UACC-257 (UACC-257, Melanoma) it was less than -8.00 Molar; in the data set on MDA-MB-435 (MDA-MB-435, Breast Cancer), less than -8.00 Molar; with UO-11 (UO-11, Renal Cancer) it was -5.83 Molar. For the same molecule, the “Log10 TGI” value is given as less than -8.00 Molar with MDA-N; -5.67 Molar in the data set with EKVX; less than -8.00 Molar with NCVADR-RES (NCVADR-RES, Breast Cancer); less than -8.00 Molar in the data set on NCI-H522; greater than -4.00 Molar in the data set with CAK1-1; -7.77 Molar in the data set on HDP-92 (setting [4]). The “Log10 TGI” value was less than -8.00 Molar in the data set with RXF393; -4.83 Molar in the data set on OVCAR-3 [1]; less than -8.00 Molar in the data set on MOLT-4 (MOLT-4, Leukemia). For the same molecule, the CC50 in the data set on HT29 (Homo sapiens, HT-29, read-out: Log10 LC50 (converted)) was 38000 nM; in the data set on UACC-257 (Homo sapiens, UACC-257, read-out: Log10 LC50 (converted)), 427 nM; in the data set on MDA-MB-435 (MDA-MB-435, read-out: LC50), less than 10 nM; with MDA-MB-435 (MDA-MB-435, read-out: Log10 LC50 (converted)), less than 10 nM; in the data set with UO-11 (setting [3]), 25700 nM; in the data set on NCVADR-RES (setting [3]), 178 nM. Moreover, the CC50 was 4370 nM in the data set with HDP-92 (setting [3]) and greater than 100000 nM with MOLT-4 (Homo sapiens, MOLT-4, read-out: Log10 LC50 (converted)).

Regarding `CC[C@H]1C(=O)N[C@@]2([C@@H](O)[C@@H]3C=CCCC3)C(=O)O[C@@]12C` [Formula II-17], the EC50 in the data set on HT-29 (Homo sapiens, read-out: EC50) is greater than 20000 nM; in the data set on PC-3 (Homo sapiens, PC-3, 48 h), greater than 20000 nM; in the data set with HL-60/MX2 (Homo sapiens, HL60/MX2, 48 h), greater than 20000 nM; with HL-60 (Homo sapiens, HL-60, 48 h), greater than 20000 nM; with NCI-H292 (Homo sapiens, read-out: EC50), greater than 20000 nM; in the data set on MDA-MB-231 (Homo sapiens, read-out: EC50), 5900 ± 601 nM. In addition, in the data set on OVCAR-3 [2] (Homo sapiens, read-out: EC50), the EC50 was greater than 20000 nM.

The molecule `C[C@H]1C(=O)N[C@@]2([C@@H](O)[C@@H]3C=CCCC3)C(=O)O[C@@]12C` [Formula II-20] gave an EC50 in the data set on RPMI 8226 of 8510 ± 3260 nM.
